{"source": "patent US20120015898A1", "about": "“COMPOUNDS AND METHODS FOR TREATMENT OF SICKLE CELL DISEASE OR COMPLICATIONS ASSOCIATED THEREWITH” (GlycoMimetics, Inc., priority 2007, published 2012)", "key": {"sickle cell mice [1]": {"tested_on": "sickle cell mice", "assay": "Delayed treatment of VOC in sickle cell mice (treatment protocol)", "assay_type": "in vivo", "conditions": "control PBS", "description": "FIG. 9 is a schematic of a sickle cell mouse model for use with both prevention and treatment protocols. The black arrows underneath Comp. #2 are for the prevention protocol. The gray arrow underneath Comp. #2 is for the treatment protocol. Recording is started at the 90 minute mark for the prevention protocol. Recording is started at the 120 minute mark for the treatment protocol.\n(§1) An animal model of sickle cell disease exists in fully chimeric mice constructed by bone marrow transplantation and expressing >97% human globin containing the β^S mutation. A vaso-occlusive crisis is induced by stimulation with TNFα and is monitored by observing and recording blood flow by intravital microscopy of the venules in the cremaster muscle.\n(§2) Each mouse is prepared by cannulating the right carotid artery and by undergoing a tracheotomy to facilitate ventilation under anesthesia. Twenty (20) minutes prior to stimulation with TNFα, the cremaster muscle is gently exteriorized and the venules are set on a microscope stage for observation and recording of blood flow. Just prior to administration of TNFα and again prior to the recording of the venules (90 min later), Compound # 2 is administered through the cannulated carotid artery and data is obtained by monitoring blood flow and recording time of death."}, "sickle cell mice [2]": {"tested_on": "sickle cell mice", "assay": "TNFα-induced vaso-occlusive crisis in sickle cell mice, intravital microscopy of cremaster venules (prevention protocol)", "assay_type": "in vivo", "source_text": "FIG. 6 is a schematic of the protocol for inducing a vaso-occlusive crisis (VOC) in sickle cell-affected mice and recording blood flow.\nas §1, §2"}}}
{"smiles": "CC1OC(OC2C(NC(=O)c3cc(O)nc(O)n3)CC(C(=O)NCCNC(=O)COCCOCC(=O)Nc3cccc(CNc4cc(S(=O)(=O)O)cc5cc(S(=O)(=O)O)cc(S(=O)(=O)O)c45)c3)CC2OC2OC(CO)C(O)C(O[C@@H](CC3CCCCC3)C(=O)O)C2OC(=O)c2ccccc2)C(O)C(O)C1O", "note": "(some centres unmarked) [Compound #2]", "values": [{"measurement": "adherent white blood cells (WBCs)", "setting": "sickle cell mice [1]; WBCs adherent to vascular endothelium, FIG. 11", "value": "significant reduction in the number of WBCs adherent to the vascular endothelium"}, {"measurement": "blood flow rate", "setting": "sickle cell mice [1]; FIG. 10", "value": "normalizes the rate of blood flow"}, {"measurement": "interactions of sickle red blood cells (RBCS) with leukocytes", "setting": "sickle cell mice [1]; FIG. 12", "value": "dramatically reduces interactions of sickle RBCs with leukocytes"}, {"measurement": "blood flow in the sickle cell mouse", "setting": "sickle cell mice [2]; after stimulation with TNFα, compound given through cannulated carotid artery just prior to TNFα and again 90 min later, FIG. 7", "value": "restoring blood flow to a velocity observed in normal mice"}, {"measurement": "adhesion of sickle red blood cells (RBC) to leukocytes", "setting": "sickle cell mice [2]; sickle cell mice, TNFα-induced vaso-occlusive crisis, FIG. 8", "value": "significant inhibition of adhesion"}]}
